Assay: Concentration of lead substances in blood plasma against time after 120 mg Ginkgo extract tablet
Conditions: humans, one tablet with 120 mg Ginkgo extract, means of 12 test persons, FIG. 1
Text: The presented values are means of 12 test persons. The administered amount is equal to the daily maximum dose, recommended by the monograph.

CC(C)(C)[C@]1(O)CC2OC(=O)CC23C(=O)OC2OC(=O)[C@H](O)C231 (stereo partly shown) [bilobalide]
concentration in blood plasma 12 hours after intake: very little concentrations
